According to US6569846B1, “Palladium-substituted bacteriochlorophyll derivatives and use thereof” (Yeda Research and Development Co. Ltd., priority 1998, dated 2003):

Key:
C6 glioma tumors = test: In vivo PDT of C6 glioma tumors and metastasis formation; parameters: species or system CD1 nude mice; details: 5 mg/Kg i.v.; for tumor flattening (disappearance): 200 mw/cm^2 for 30 minutes
Protocol: (i) Materials: Pd-BPheid (prepared as in Example 1) or Pd-BPpheid-SerOMe 5 mg/kg in 20% Cremophor EL.
(ii) Light source: The light source was a Xenon fluorine LS3-PDT lamp (Bio-Spec, Russia), with 10 cm water filter and 720-850 nm light band.
(iv) Tumors: Mice were implanted with 10^6 C6 glioma cells in the foot of the hind leg. Tumors were treated when reached a length of 7-8 mm.
(vii) Protocol: Three groups (10 mice in each) were i.v. injected with 5 mg/Kg of sensitizer (Pd-BPheid or Pd-BPpheid-SerOMe) and immediately illuminated at 200 mw/cm^2, for 30 minutes, and the animals were allowed to recover in the cage. Groups 1 and 2: Animals which received PDT Pd-Bpheid and Pd-BPpheid-SerOMe, respectively. Tumor response and metastasis formation in groin were followed for 4 weeks. Group 3: Animals which were amputated at the ankle joint (paired with group 1) and metastasis formation in groin was followed for 4 weeks. The parameters of response to PDT were the percent of animals with tumor necrosis and disappearance, out of the total number of treated animals. Metatstasis was manifested by appearance of tumors in the groin or elsewhere. The endpoints considered were: follow up for 4 weeks, spontaneous death, tumors reached a diameter of 2 cm, metastasis, whichever came first.

M2R mouse melanoma cells = test: Phototoxicity on M2R cells (Example 10, [3H]-thymidine incorporation); type: cell-based; details: pigments dissolved directly in culture medium containing 10% serum
Protocol: The diluted pigments were added and the cells were incubated in the dark for four hours at 37° C. Prior to illumination, the cells were washed once and replaced with fresh culture medium. The plates were then illuminated from the bottom for 10 minutes at room temperature and placed in the culture incubator at 37° C. in the dark. […] The following control systems were used: Dark control—untreated cells kept in the dark; Light control—cells not treated with sensitizer that were illuminated; Dark toxicity—cells treated with pigment but kept in the dark.

[1] = tested on: HT29 human colon adenocarcinoma; test: In vivo phototoxicity on grafted HT29 tumors (tumoral index); parameters: species or system Swiss nude mice; details: for tumor growth as compared to controls / duration of decrease of tumor index: 15 mg/kg i.v., 763 nm
Protocol: Animal and tumor model: Solid tumor tissue (diameter 2 cm) removed from donor mouse immediately after death was mechanically crushed in 1 ml of 0.9% saline solution and the solution (0.1 ml) was injected s.c. into one hind leg of each mouse. Mice were included for experiments when the tumor diameter was 8-10 mm. Tumors were grafted s.c. in 8-week aged Swiss nude mice 10 days before experiment.
Phototoxic studies: 0.15 ml Pd-BPheid was injected i.v. at 15 mg/kg. Mice were anesthetized with thiopental at 40 mg/kg just before irradiation. At 30 min, 1 h, 4 h or 24 h after injection, mice were irradiated with a titanium sapphire laser at 300 mW/cm^2, mean diameter were measured to adjust time irradiation to obtain 200 or 300 J/cm^2. Control mice not injected with Pd-BPheid were also irradiated in same conditions. The tumor growth delay induced by PDT was analyzed by equivalence with tests realized in experimental radiotherapy. For in vivo studies and for each separate experiment, all results were the mean of 2 or 3 separate experiments and for each separate experiment, 2 mice were used for each experimental condition.
Concerning tumoral growth studies, results are expressed as tumoral index variations with reference (=1) corresponding to tumoral index from non-treated cells. The tumoral index was calculated as follows:
Tumoral index=(largest tumoral diameter+perpendicularly opposite diameter)/2.

[2] = tested on: M2R mouse melanoma tumors; test: In vivo PDT of M2R melanoma tumors; parameters: species or system CD1 nude mice; details: 2.5 mg/Kg i.v., illuminated 30 min at 300 mW cm^−2; within 24 h
Protocol: (iv) Tumor implantation: Mice were implanted with 10^6 M2R cells on the back and tumors arose to the treatment size (7-8 mm) within 2-3 weeks.
(v) Light source: Osram 150 W halogen photo-optic lamp 64643 (D. K. Keller et al 1999, Int. J. Hyperthermia 15, 467-474) equipped with λ=650-900 mn spectral window, 300 mW/cm^−2. Illumination was for 30 min.
(vi) PDT protocol: The anesthetized mouse was i.v injected with the pigment and the tumor immediately illuminated. At the end of treatment the mouse was placed back in the cage. Photographs of the tumor were taken before and at the times indicated.
Preparation of sensitizer: Two mg Pd-BPheid were dissolved in 0.25 ml cremophor EL followed by 20 min sonication. 0.075 ml 1,2-propylene glycol were added and sonication was continued for another 15 min. Then 0.9 ml of […] were added followed by 5 min sonication. The sample was centrifuged for 12 min at 13,000 rpm (Eppendorf). The final calculated concentration of Pd-BPheid based on spectrum in chloroform was 0.5 mg/ml. […]
Preparation of sensitizer: Two mg Pd-BPheid were dissolved in 0.1 ml methanol, 0.1 ml 0.1M KH2PO4, pH=8.0 and 0.9 ml PBS and sonicated for 10 min. […] The sample was centrifuged for 8 min on 13,000 rpm the final calculated concentration of Pd-BPheid based on spectrum in chloroform was 0.5 mg/ml. […]

CC[C@H]1C2=NC(=Cc3c(C(C)=O)c(C)c4[n]3[Pd][n]3c(c(C)c5c3=C(C3=NC(=C4)[C@@H](C)[C@@H]3CCC(=O)O)[C@@H](C(=O)OC)C5=O)=C2)[C@@H]1C [Pd-BPheid, Pd-bacteriopheophorbide a]
effect of PDT on C6 glioma tumors (C6 glioma tumors): curative | tumor flattening (disappearance) (C6 glioma tumors; day 11): 100% | tumor flattening (disappearance) (C6 glioma tumors; day 28): about 60% | frequency of metastasis after PDT (C6 glioma tumors; follow up for 4 weeks): up to 23% | phototoxic activity (M2R mouse melanoma cells): fully active | tumor growth as compared to controls ([1]; 200 J/cm^2, 30 min and 4 h after injection): tumor growth decrease | duration of decrease of tumor index ([1]; 200 J/cm^2, 1 h and 24 h after injection): up to 7 days | tumor growth as compared to controls ([1]; 300 J/cm^2, 30 min and 24 h after injection): tumor growth decrease | duration of decrease of tumor index ([1]; 300 J/cm^2, 1 h and 4 h after injection): up to 7 days | wavelength of maximum tumor growth decrease ([1]; 300 J/cm^2, 1 h after injection): 763 nm | duration of tumor growth decrease as compared to controls ([1]; 300 J/cm^2, 1 h after injection, 753 nm and 763 nm): up to 12 days | duration of tumor growth decrease as compared to controls ([1]; 300 J/cm^2, 1 h after injection, 773 nm): up to 5 days | wavelength of maximum tumor growth decrease ([1]; 300 J/cm^2, 24 h after injection): 773 nm | duration of tumor growth decrease as compared to controls ([1]; 300 J/cm^2, 24 h after injection, 753 nm): up to 4 days | duration of tumor growth decrease as compared to controls ([1]; 300 J/cm^2, 24 h after injection, 763 nm and 773 nm): up to 12 days | most efficient delay between injection and illumination ([1]; 773 nm wavelength): 24 h | most efficient delay between injection and illumination ([1]; at 764 nm): one hour | optimal wavelength of irradiation ([1]; summary of the study): 773 nm | tumor response to PDT [2]: severe inflammatory response with necrosis of the tumor
